Source: US20220340633A1 (Adepthera LLC, priority 2016, published 2022)
Entries after “also recorded” stand apart in the source; their conditions may differ. Positions of bridges follow the written chain, without caps; N, C: chain ends. Non-standard residues stand in square brackets, D forms with d. Residues, ends and D or L forms follow the SMILES beside them. *: point of attachment. Palmitoyl = CCCCCCCCCCCCCCCC(=O)*; AEEA = NCCOCCOCC(=O)O

What was measured:
[1] = molecular target: T1, CLR/RAMP2 receptor (Homo sapiens, UniProt O60895+Q16602); assay: CLR/RAMP2 arrestin receptor activation assay (agonist); format: cell-based; conditions: for Emax: CHO-K1, read-out: CLR/RAMP 2 Max Activity % of positive control, CHO-K1 cells; for EC50: CHO-K1 cells stably expressing CLR/RAMP2, arrestin, positive control ADM, read-out: CLR/RAMP 2 EC50
T1 construct: host or cells: CHO-K1 cells
Protocol: (§1) Using a receptor activation assay, the dose-dependent stimulatory response of peptide agonists of the present invention on a CLR/RAMP1 receptor, a CLR/RAMP2, or a CLR/RAMP3 receptor complex was determined. A cell line carrying the recombinant CLR/RAMP1, CLR/RAMP2, or a CLR/RAMP3 receptor was employed in the assay. Peptide agonist activities were tested, in duplicate, at 10 different concentrations, starting with 1.0 μM and serially diluted 3-fold, in DMSO. […] The CLR/RAMP1 cAMP, CLR/RAMP2 arrestin assays, and CLR/RAMP3 cAMP (DiscoveRx, Fremont, Calif.) were used.

[2] = molecular target: CLR/RAMP1 receptor (Homo sapiens, UniProt O60894+Q16602); assay: CLR/RAMP1 cAMP receptor activation assay (agonist); format: cell-based; design: host or cells: 1321N1 cells; conditions: for Emax: 1321-N1, read-out: CLR/RAMP 1 Max Activity % of positive control, 1321N1 cells, % of positive control (β-CGRP); for EC50: 1321N1 cells stably expressing CLR/RAMP1, cAMP, positive control β-CGRP, read-out: CLR/RAMP 1 EC50
Protocol: as §1

[3] = molecular target: T2, CLR/RAMP3 receptor (Homo sapiens, UniProt O60896+Q16602); assay: CLR/RAMP3 cAMP receptor activation assay (agonist); format: cell-based; design: host or cells: CHO-K1 cells; conditions: CHO-K1, read-out: CLR/RAMP 3 Max Activity % of positive control
Protocol: as §1

[4] = system: primary human lymphatic endothelia cells (HLEC); assay: HLEC proliferation in medium with 2% FBS, MTS assay; conditions: 30, 100, and 300 nM, 72 hrs
Protocol: (§2) The cells were cultured for 72 hrs, and cell viability was assayed with the MTS assay (Promega).

[5] = system: primary human lymphatic endothelia cells (HLEC); assay: HLEC survival in medium with 0.1% FBS, MTS assay; conditions: 30, 100, and 300 nM, 72 hrs
Protocol: as §2

[6] = molecular target: T2, CLR/RAMP3 receptor; conditions: antagonist mode
Protocol: as §1
For the analysis of antagonistic activity, the synthetic analogs were pre-incubated with the cells before adding the reference ligand at its EC80.

Sequence of CLR/RAMP1 receptor (Q16602 23-461): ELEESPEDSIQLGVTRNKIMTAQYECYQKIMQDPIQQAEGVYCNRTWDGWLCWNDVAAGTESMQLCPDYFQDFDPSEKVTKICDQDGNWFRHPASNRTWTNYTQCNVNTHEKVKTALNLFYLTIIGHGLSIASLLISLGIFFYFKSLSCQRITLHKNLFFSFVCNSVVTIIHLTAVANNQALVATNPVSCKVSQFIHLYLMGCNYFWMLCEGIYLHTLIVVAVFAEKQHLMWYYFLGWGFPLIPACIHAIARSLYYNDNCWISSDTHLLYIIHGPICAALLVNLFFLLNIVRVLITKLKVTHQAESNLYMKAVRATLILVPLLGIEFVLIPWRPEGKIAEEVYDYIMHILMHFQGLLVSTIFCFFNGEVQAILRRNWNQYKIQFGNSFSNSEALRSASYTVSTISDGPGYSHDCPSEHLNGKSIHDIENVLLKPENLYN
Sequence of CLR/RAMP1 receptor (O60894 27-148): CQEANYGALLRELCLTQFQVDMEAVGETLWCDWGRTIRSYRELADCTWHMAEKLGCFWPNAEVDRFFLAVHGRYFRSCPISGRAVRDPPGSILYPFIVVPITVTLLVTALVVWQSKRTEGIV
T1 sequence (Q16602 23-461): as the sequence (Q16602 23-461) above
T1 sequence (O60895 43-175): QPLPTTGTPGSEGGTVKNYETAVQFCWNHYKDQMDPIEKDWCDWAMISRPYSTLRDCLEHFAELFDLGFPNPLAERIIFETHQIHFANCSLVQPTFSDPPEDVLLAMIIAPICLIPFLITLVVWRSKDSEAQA
T2 sequence (Q16602 23-461): as the sequence (Q16602 23-461) above
T2 sequence (O60896 24-148): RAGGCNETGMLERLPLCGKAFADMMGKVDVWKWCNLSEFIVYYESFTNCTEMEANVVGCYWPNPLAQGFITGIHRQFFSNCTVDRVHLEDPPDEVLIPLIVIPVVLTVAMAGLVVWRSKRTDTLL

| Compound | Emax ([1]; % of positive control (ADM)) [%] | EC50 [1] [nM] | Emax [2] [%] | EC50 [2] [nM] | Emax [3] [%] | receptor specificity of agonist ([1]; CLR/RAMP2 versus CLR/RAMP1) | CLR/RAMP 2 Max Activity % of positive control ([1]; CHO-K1 cells, % of positive control (ADM)) [%] | HLEC proliferation (in words) [4] | HLEC survival (in words) [5] | CLR/RAMP3 Max Activity % of positive control [6] [%] |
| --- | --- | --- | --- | --- | --- | --- | --- | --- | --- | --- |
| CCCCCCCCCCCCCCCC(=O)NCCCC[C@H](NC(=O)COCCOCCN)C(=O)NCC(=O)N[C@H]1CSSC[C@@H](C(=O)N[C@H](C(=O)N[C@H](C(=O)N[C@@H](CCC(N)=O)C(=O)N[C@@H](CCCCN)C(=O)N[C@@H](CC(C)C)C(=O)N[C@@H](C)C(=O)N[C@@H](Cc2c[nH]cn2)C(=O)N[C@@H](CCC(N)=O)C(=O)N[C@H](C(=O)N[C@@H](Cc2ccc(O)cc2)C(=O)N[C@@H](CCC(N)=O)C(=O)N[C@@H](Cc2ccccc2)C(=O)N[C@H](C(=O)N[C@@H](CC(=O)O)C(=O)N[C@@H](CCCCN)C(=O)N[C@@H](CC(=O)O)C(=O)N[C@@H](CO)C(=O)N[C@@H](C)C(=O)N2CCC[C@H]2C(=O)N[C@H](C(=O)N[C@@H](CC(=O)O)C(=O)N2CCC[C@H]2C(=O)N[C@@H](CO)C(=O)N[C@@H](CO)C(=O)N2CCC[C@H]2C(=O)N[C@@H](Cc2c[nH]cn2)C(=O)N[C@@H](CO)C(=O)N[C@@H](Cc2ccc(O)cc2)C(N)=O)C(C)C)[C@@H](C)O)[C@@H](C)CC)C(C)C)[C@@H](C)O)NC(=O)[C@H]([C@@H](C)O)NC(=O)CNC(=O)[C@H](Cc2ccccc2)NC(=O)[C@H](CCCNC(=N)N)NC1=O [SEQ ID NO: 48] (H-[AEEA]K(Palmitoyl)GCRFGTCTVQKLAHQIYQFTDKDSAPVDPSSPHSY-NH2; disulfide 4-9) | 77 | 0.2 | 78 | 0.3 | 141 |  |  |  |  |  |
| CCCCCCCCCCCCCCCC(=O)NCCCC[C@H](NC(=O)COCCOCCN)C(=O)NCC(=O)N[C@H]1CSSC[C@@H](C(=O)N[C@H](C(=O)N[C@H](C(=O)N[C@@H](CCC(N)=O)C(=O)N[C@@H](CCCCN)C(=O)N[C@@H](CC(C)C)C(=O)N[C@@H](C)C(=O)N[C@@H](Cc2c[nH]cn2)C(=O)N[C@@H](CCC(N)=O)C(=O)N[C@H](C(=O)N[C@@H](Cc2ccc(O)cc2)C(=O)N[C@@H](CCC(N)=O)C(=O)N[C@@H](Cc2ccccc2)C(=O)N[C@H](C(=O)N[C@@H](CC(=O)O)C(=O)N[C@@H](CCCCN)C(=O)N[C@@H](CC(=O)O)C(=O)N[C@H](C(=O)N[C@@H](C)C(=O)N2CCC[C@H]2C(=O)N[C@@H](CCCNC(=N)N)C(=O)N[C@@H](CO)C(=O)N[C@@H](CCCCN)C(=O)N[C@H](C(=O)N[C@@H](CO)C(=O)N2CCC[C@H]2C(=O)N[C@@H](CCC(N)=O)C(=O)NCC(=O)N[C@@H](Cc2ccc(O)cc2)C(N)=O)[C@@H](C)CC)C(C)C)[C@@H](C)O)[C@@H](C)CC)C(C)C)[C@@H](C)O)NC(=O)[C@H]([C@@H](C)O)NC(=O)CNC(=O)[C@H](Cc2ccccc2)NC(=O)[C@H](CCCNC(=N)N)NC1=O [SEQ ID NO: 101] | 74 |  | 56 |  | 129 | CLR/RAMP2-specific |  |  |  |  |
| CCCCCCCCCCCCCCCC(=O)NCCCC[C@H](NC(=O)COCCOCCN)C(=O)NCC(=O)N[C@H]1CSSC[C@@H](C(=O)N[C@H](C(=O)N[C@H](C(=O)N[C@@H](CCC(N)=O)C(=O)N[C@@H](CCCCN)C(=O)N[C@@H](CC(C)C)C(=O)N[C@@H](C)C(=O)N[C@@H](Cc2c[nH]cn2)C(=O)N[C@@H](CCC(N)=O)C(=O)N[C@H](C(=O)N[C@@H](Cc2ccc(O)cc2)C(=O)N[C@@H](CCC(N)=O)C(=O)N[C@@H](Cc2ccccc2)C(=O)N[C@H](C(=O)N[C@@H](CC(=O)O)C(=O)N[C@@H](CCCCN)C(=O)N[C@@H](CC(=O)O)C(=O)N[C@@H](CCCCN)C(=O)N[C@@H](CC(=O)O)C(=O)N[C@@H](CC(N)=O)C(=O)N[C@@H](CO)C(=O)N[C@@H](C)C(=O)N2CCC[C@H]2C(=O)N[C@H](C(=O)N[C@@H](CC(=O)O)C(=O)N2CCC[C@H]2C(=O)N[C@@H](CO)C(=O)N[C@@H](CO)C(=O)N2CCC[C@H]2C(=O)N[C@@H](Cc2c[nH]cn2)C(=O)N[C@@H](CO)C(=O)N[C@@H](Cc2ccc(O)cc2)C(N)=O)C(C)C)[C@@H](C)O)[C@@H](C)CC)C(C)C)[C@@H](C)O)NC(=O)[C@H]([C@@H](C)O)NC(=O)CNC(=O)[C@H](Cc2ccccc2)NC(=O)[C@H](CCCNC(=N)N)NC1=O [SEQ ID NO: 28] |  | 0.5 | 54 | 0.3 | 117 |  | 143 | dose-dependently stimulated; also recorded: significantly promote | dose-dependently stimulated; also recorded: significantly promote |  |
| CCCCCCCCCCCCCCCC(=O)N[C@@H](CCCCN)C(=O)N[C@H](C(=O)N[C@@H](CCC(N)=O)C(=O)N[C@@H](CCCCN)C(=O)N[C@@H](CC(C)C)C(=O)N[C@@H](C)C(=O)N[C@@H](Cc1c[nH]cn1)C(=O)N[C@@H](CCC(N)=O)C(=O)N[C@@H](CO)C(=O)N[C@@H](C)C(=O)N1CCC[C@H]1C(=O)N[C@H](C(=O)N[C@@H](CC(=O)O)C(=O)N1CCC[C@H]1C(=O)N[C@@H](CO)C(=O)N[C@@H](CO)C(=O)N1CCC[C@H]1C(=O)N[C@@H](Cc1c[nH]cn1)C(=O)N[C@@H](CO)C(=O)N[C@@H](Cc1ccc(O)cc1)C(N)=O)C(C)C)C(C)C [SEQ ID NO: 124] |  |  |  |  |  |  |  |  |  | 102 |
| CCCCCCCCCCCCCCCC(=O)NCCCC[C@H](NC(=O)COCCOCCN)C(=O)NCC(=O)N[C@H]1CSSC[C@@H](C(=O)N[C@H](C(=O)N[C@H](C(=O)N[C@@H](CCC(N)=O)C(=O)N[C@@H](CCCCN)C(=O)N[C@@H](CC(C)C)C(=O)N[C@@H](C)C(=O)N[C@@H](Cc2c[nH]cn2)C(=O)N[C@@H](CCC(N)=O)C(=O)N[C@H](C(=O)N[C@@H](Cc2ccc(O)cc2)C(=O)N[C@@H](CCC(N)=O)C(=O)N[C@@H](Cc2ccccc2)C(=O)N[C@H](C(=O)N[C@@H](CC(=O)O)C(=O)N[C@@H](CCCCN)C(=O)N[C@@H](CC(=O)O)C(=O)N[C@@H](CCCCN)C(=O)N[C@@H](CC(=O)O)C(=O)N[C@@H](CC(N)=O)C(=O)N[C@H](C(=O)N[C@@H](C)C(=O)N2CCC[C@H]2C(=O)N[C@@H](CCCNC(=N)N)C(=O)N[C@@H](CO)C(=O)N[C@@H](CCCCN)C(=O)N[C@H](C(=O)N[C@@H](CO)C(=O)N2CCC[C@H]2C(=O)N[C@@H](CCC(N)=O)C(=O)NCC(=O)N[C@@H](Cc2ccc(O)cc2)C(N)=O)[C@@H](C)CC)C(C)C)[C@@H](C)O)[C@@H](C)CC)C(C)C)[C@@H](C)O)NC(=O)[C@H]([C@@H](C)O)NC(=O)CNC(=O)[C@H](Cc2ccccc2)NC(=O)[C@H](CCCNC(=N)N)NC1=O [SEQ ID NO: 69] | 147 |  | 70 |  | 127 |  |  | dose-dependently stimulated; also recorded: significantly promote | dose-dependently stimulated; also recorded: significantly promote |  |
